Experimental data as given in PubChem BioAssay AID1259418 (Broad Institute, 2018).
“And” between values parts separate entries of the source, which are not always exact repeats. Equal entries are not always repeated. Records with an inconclusive call do not appear. The source made the active and inactive calls.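 Rule for the calls: active = fitted half-maximal concentration of signal decrease at or below twice the sample's top tested concentration; inconclusive = flat curve between -70 and -30 percent, or poor fit; inactive = flat within 30 percent, signal rise, or potency above limit.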

What follows are compounds tested against T. gondii ME49Luc in IFN-y HeLa, luciferase, 72 h (assay: inhibitors of Toxoplasma growth in IFN-γ-primed HeLa – cell-based, ME49Luc, luciferase, 72 h, dose response (AID 1259418)).

Row | Structure (SMILES) | AC50
1 | Cc1ccc(S(=O)(=O)N2CCC3(CC2)NCCN=C3NCc2cc(F)cc(F)c2)cc1C | 30.1 µM
2 | Clc1cccc(CN2CCC3(COCc4cnc(-c5ccccc5)nc43)C2)c1 (stereo unspecified) | 18.2 µM and 10.4 µM
3 | CCCCNC(=O)CCC1N=C2c3ccccc3N=C(SCc3ccc(Cl)cc3)N2C1=O (stereo unspecified) | 17 µM
4 | CCCCN(C)C(=O)c1cnc(-c2noc3cc(NCC4CC4)ccc23)s1 | 6.44 µM and 21.7 µM
5 | COCC(=O)Nc1ccc(-c2nc(-c3cc(C)ccc3C)co2)cc1 | > 39 µM (inactive)
6 | COc1ccc(CNC(=O)CC2N=C3c4ccccc4N=C(SCc4ccc(F)cc4)N3C2=O)cc1 (stereo unspecified) | 22.6 µM
7 | COc1ccccc1-c1nc(CN2CCc3c(sc4c3CCCC4)C2c2ccccc2)c(C)o1 (stereo unspecified) | 7.72 µM
8 | COc1ccc(N(Cc2nc(-c3ccccc3OC)oc2C)S(=O)(=O)c2ccc(OC)cc2)cc1 | 17.9 µM
9 | CN(C)C(=O)c1ccc(-c2ccc3c(c2)[C@H]2[C@H](CCN2C(=O)C2CCCC2)[C@@H](CO)N3C)cc1 | 18.8 µM
10 | N#C[C@H]1[C@@H](c2ccc(-c3cccnc3)cc2)[C@@H](CO)N1C(=O)Nc1ccc(F)cc1 | 12.7 µM
11 | Cc1ccc(-c2nc(CN3CCN(C(=O)Nc4cccc(Cl)c4)CC3)c(C)o2)cc1 | > 39 µM (inactive)
12 | O=C(CC1Nc2c3ccccc3nc(=S)n2C1=O)NCc1ccccc1Cl (stereo unspecified) | 28.7 µM
13 | COc1cccc(NC(=O)N2CC(=O)N3[C@H](CO)[C@@H](c4ccc(C#CCC5CCCC5)cc4)[C@H]3C2)c1 | > 39 µM (inactive)
14 | Cc1ccc2c(c1C)-n1cccc1C1(CCN(C(=O)c3ccccc3Br)CC1)N2 | 17.7 µM
15 | Cc1oc(-c2cccc(Cl)c2)nc1CN1CCc2c(sc3c2CCCC3)C1c1ccccc1 (stereo unspecified) | 6.85 µM
16 | Cc1ccc(NC(=O)N2CCN(Cc3nc(-c4cccc(Cl)c4)oc3C)CC2)cc1Cl | 15.7 µM
17 | CCN1CCN(Cc2ccc(Nc3nc(-c4ccc(OC)cc4)nc4ccccc34)cc2)CC1 | 11.3 µM and 12.5 µM
18 | COc1cccc(S(=O)(=O)N2CCCCN3[C@@H](CO)[C@@H](c4ccc(C#CCC(C)C)cc4)[C@@H]3C2)c1 | 4.66 µM and 5.61 µM and 2.22 µM

Row | Structure (SMILES) | AC50
19 | OC[C@@H]1[C@@H](c2ccc(-c3cccc(F)c3)cc2)[C@@H]2CN(Cc3cncnc3)CCCCN12 | 36.1 µM
20 | COc1ccccc1N(Cc1nc(-c2ccc(C)cc2)oc1C)S(=O)(=O)c1ccccc1C | 15.1 µM
21 | COc1ccc(-c2ccc([C@H]3[C@H]4CN(Cc5ccccc5)CC(=O)N4[C@H]3CO)cc2)cc1 | 21 µM
22 | CCc1ccccc1S(=O)(=O)N1CCc2nc(-c3ccc(OC)cc3)sc2C1 | 7.8 µM and 14.9 µM
23 | CCOc1ccc(-c2nc(CN(c3ccccc3)S(=O)(=O)c3cccs3)c(C)o2)cc1 | 15.2 µM
24 | COc1ccc(S(=O)(=O)N(Cc2nc(-c3cccc(C)c3)oc2C)c2ccccc2OC)cc1 | 6 µM
25 | O=S(=O)(c1cccs1)N1CCCCN2[C@H](CO)[C@@H](c3ccc(/C=C/c4ccccc4)cc3)[C@@H]2C1 | 22 µM
26 | CCN(CCCNC(=O)CC1Nc2c3ccccc3nc(=S)n2C1=O)c1ccccc1 (stereo unspecified) | > 39 µM (inactive)
27 | COc1ccc(OC)c(S(=O)(=O)N2CCc3c([nH]c4ccccc34)C2c2cc(F)ccc2F)c1 (stereo unspecified) | > 39 µM (inactive)
28 | O=C(Nc1cccc(F)c1)N1CCCCN2[C@H](C1)[C@@H](c1ccc(C#Cc3cccnc3)cc1)[C@@H]2CO | 10.3 µM
29 | Cc1ccc(-c2coc(-c3ccc(NS(=O)(=O)c4ccc(F)c(Cl)c4)cc3)n2)c(C)c1 | 24.7 µM
30 | COc1ccccc1-c1noc(-c2nnn(Cc3nc(-c4ccccc4OC)oc3C)c2C)n1 | > 39 µM (inactive)
31 | CCCNC(=O)[C@H]1[C@H](CO)[C@H]2Cn3c(ccc(C4=CCCCC4)c3=O)[C@H]2N1Cc1ccccc1F | 8.99 µM
32 | Cc1oc(-c2ccccc2)nc1CSc1nc2c(c(=O)[nH]1)CN(Cc1ccccc1)CC2 | 15.4 µM
33 | O=C(c1ccc(F)cc1)N1CC(=O)N2[C@H](CO)[C@H](c3ccc(C#CCC4CCCC4)cc3)[C@@H]2C1 | 14.4 µM and 12 µM
34 | COc1cc(OC)cc(C(=O)N2CCC3(CC2)Nc2cc(OC)ccc2-n2cccc23)c1 | 30.1 µM
35 | OC[C@@H]1Nc2ccc(C#Cc3ccc(F)cc3)cc2[C@@H]2[C@H]1CCN2Cc1ccc2c(c1)OCO2 | 15.4 µM and 23.4 µM
36 | CCOc1ccc(-c2nc(CN(c3ccccc3OC)S(=O)(=O)c3cccs3)c(C)o2)cc1 | 8.23 µM
